{"source": "patent US8148152B2", "about": "“Method for the preparation of embryoid bodies (EBs) and uses thereof” (Axiogenesis AG, priority 2003, dated 2012)", "origin": "cited, not measured here", "key": {"[1]": {"system": "EBs from mouse embryonic stem cells (clone D3, pαMHC-GFP)", "settings": "test compounds with known embryotoxic potential from ECVAM list; 10^-8 to 10^-5 M; fluorescence on day 14 as percent of control (0.1% DMSO); data only in FIG. 5"}, "[2]": {"system": "ES cell-derived cardiomyocytes", "settings": "test compounds with known cardiotoxic potential; added on day 14, effect on fluorescent areas during 72 hours; data only in FIG. 6"}}, "data": [{"smiles": "CCCC(CCC)C(=O)O", "note": "[valproic acid]", "values": [{"measurement": "embryotoxic potential (classification of test compound)", "setting": "[1]", "result": "weak embryotoxic"}]}, {"smiles": "COC(=O)c1ccccc1C(=O)OC", "note": "[dimethylphtalate]", "values": [{"measurement": "embryotoxic potential (classification of test compound)", "setting": "[1]", "result": "non-embryotoxic"}]}, {"smiles": "COc1cccc2c1C(=O)c1c(O)c3c(c(O)c1C2=O)C[C@@](O)(C(=O)CO)C[C@@H]3O[C@H]1C[C@H](N)[C@H](O)[C@H](C)O1", "note": "[doxorubicine]", "values": [{"measurement": "cardiotoxic potential (classification of test compound)", "setting": "[2]", "result": "cardiotoxic"}]}, {"smiles": "CN(Cc1cnc2nc(N)nc(N)c2n1)c1ccc(C(=O)N[C@@H](CCC(=O)O)C(=O)O)cc1", "note": "[methotrexate]", "values": [{"measurement": "embryotoxic potential (classification of test compound)", "setting": "[1]", "result": "strong embryotoxic"}]}, {"smiles": "C[C@@H]1C[C@H]2[C@@H]3CCC4=CC(=O)C=C[C@]4(C)[C@@]3(F)[C@@H](O)C[C@]2(C)[C@@]1(O)C(=O)CO", "note": "[dexamethasone]", "values": [{"measurement": "cardiotoxic potential (classification of test compound)", "setting": "[2]", "result": "non cardiotoxic"}]}]}
